According to ChEMBL document CHEMBL5537145, “Design, synthesis and evaluation of novel UDCA-aminopyrimidine hybrids as ATX inhibitors for the treatment of hepatic and pulmonary fibrosis” (Eur J Med Chem, 2024):
Blank lines part the entries; values can stand above or below the molecule they belong to. Active and inactive are the calls of the source. No cut-off for these calls is given here.

Experiments:
Autotaxin [1] = biological target: T1, Autotaxin (Homo sapiens, UniProt Q13822); assay: Inhibition of human ATX in using LPC as substrate by fluorescence based microplate reader assay
LX-2 [2] = assay: Anti-hepatic fibrosis activity against TGF-beta1 stimulated human LX2 cells assessed as reduction in COL1A1 mRNA expression level at 5 to 20 uM incubated for 48 hrs by quantitative real-time PCR analysis; type: functional, cell-based; conditions: dose 5-20 µM
LX-2 [3] = assay: Effect on total Smad3 level in TGF-beta1 stimulated human LX2 cells at 5 to 20 uM incubated for 48 hrs by Western blotting analysis; type: functional, cell-based; conditions: dose 5-20 µM
LX-2 [4] = assay: Anti-hepatic fibrosis activity against TGF-beta1 stimulated human LX2 cells assessed as reduction in alpha-SMA mRNA expression level at 5 to 20 uM incubated for 48 hrs by quantitative real-time PCR analysis; type: functional, cell-based; conditions: dose 5-20 µM
CCC-HPF-1 [5] = assay: Effect on total Smad2 level in TGF-beta1 stimulated human CCC-HPF-1 cells at 5 to 20 uM incubated for 48 hrs by Western blotting analysis; type: functional, cell-based; conditions: dose 5-20 µM
CCC-HPF-1 [6] = assay: Anti-migratory activity against TGF-beta1 stimulated human CCC-HPF-1 cells at 10 uM incubated for 24 hrs by light microscopic analysis; type: functional, cell-based
LX-2 [7] = assay: Cytotoxicity against human LX2 cells assessed as reduction in cell viability at 2.5 to 80 uM incubated for 48 hrs by MTT assay; type: toxicity, cell-based; conditions: lx-2, 48 h, dose 2.5-80 µM
CCC-HPF-1 [8] = assay: Anti-pulmonary fibrosis activity against TGF-beta1 stimulated human CCC-HPF-1 cells assessed as reduction in FN protein expression level at 5 to 20 uM incubated for 48 hrs by Western blotting analysis; type: functional, cell-based; conditions: dose 5-20 µM
CCC-HPF-1 [9] = assay: Anti-pulmonary fibrosis activity against TGF-beta1 stimulated human CCC-HPF-1 cells assessed as reduction in Smad2 phosphorylation incubated for 48 hrs by Western blotting analysis; type: functional, cell-based; conditions: dose 5-20 µM
CCC-HPF-1 [10] = assay: Anti-pulmonary fibrosis activity against TGF-beta1 stimulated human CCC-HPF-1 cells assessed as reduction in COL1A1 protein expression level at 5 to 20 uM incubated for 48 hrs by Western blotting analysis; type: functional, cell-based; conditions: dose 5-20 µM
LX-2 [11] = assay: Anti-hepatic fibrosis activity against TGF-beta1 stimulated human LX2 cells assessed as reduction in COL1A1 protein expression level at 5 to 20 uM incubated for 48 hrs by Western blotting analysis; type: functional, cell-based; conditions: dose 5-20 µM
LX-2 [12] = assay: Effect on total Smad2 level in TGF-beta1 stimulated human LX2 cells at 5 to 20 uM incubated for 48 hrs by Western blotting analysis; type: functional, cell-based; conditions: dose 5-20 µM
LX-2 [13] = assay: Anti-hepatic fibrosis activity against TGF-beta1 stimulated human LX2 cells assessed as reduction in alpha-SMA protein expression level at 5 to 20 uM incubated for 48 hrs by Western blotting analysis; type: functional, cell-based; conditions: dose 5-20 µM
CCC-HPF-1 [14] = assay: Cytotoxicity against human CCC-HPF-1 cells assessed as reduction in cell viability at 2.5 to 80 uM incubated for 48 hrs by MTT assay; type: toxicity, cell-based; conditions: ccc-hpf-1, 48 h, dose 2.5-80 µM
CCC-HPF-1 [15] = assay: Anti-pulmonary fibrosis activity against TGF-beta1 stimulated human CCC-HPF-1 cells assessed as reduction in Smad3 phosphorylation incubated for 48 hrs by Western blotting analysis; type: functional, cell-based; conditions: dose 5-20 µM
CCC-HPF-1 [16] = assay: Anti-pulmonary fibrosis activity against TGF-beta1 stimulated human CCC-HPF-1 cells assessed as inhibition of Smad2/3 nuclear translocation at 10 uM incubated for 48 hrs by DAPI staining based immunofluorescence analysis; type: functional, cell-based
CCC-HPF-1 [17] = assay: Anti-pulmonary fibrosis activity against TGF-beta1 stimulated human CCC-HPF-1 cells assessed as reduction in COL1A1 mRNA expression level at 5 to 20 uM incubated for 48 hrs by quantitative real-time PCR analysis; type: functional, cell-based; conditions: dose 5-20 µM
LX-2 [18] = assay: Anti-hepatic fibrosis activity against TGF-beta1 stimulated human LX2 cells assessed as reduction in Smad2 phosphorylation incubated for 48 hrs by Western blotting analysis; type: functional, cell-based; conditions: dose 5-20 µM
LX-2 [19] = assay: Anti-hepatic fibrosis activity against TGF-beta1 stimulated human LX2 cells assessed as reduction in FN protein expression level at 5 to 20 uM incubated for 48 hrs by Western blotting analysis; type: functional, cell-based; conditions: dose 5-20 µM
CCC-HPF-1 [20] = assay: Effect on total Smad3 level in TGF-beta1 stimulated human CCC-HPF-1 cells at 5 to 20 uM incubated for 48 hrs by Western blotting analysis; type: functional, cell-based; conditions: dose 5-20 µM
CCC-HPF-1 [21] = assay: Anti-pulmonary fibrosis activity against TGF-beta1 stimulated human CCC-HPF-1 cells assessed as reduction in alpha-SMA protein expression level at 5 to 20 uM incubated for 48 hrs by Western blotting analysis; type: functional, cell-based; conditions: dose 5-20 µM
LX-2 [22] = assay: Anti-hepatic fibrosis activity against TGF-beta1 stimulated human LX2 cells assessed as inhibition of Smad2/3 nuclear translocation at 10 uM incubated for 48 hrs by DAPI staining based immunofluorescence analysis; type: functional, cell-based
LX-2 [23] = assay: Anti-hepatic fibrosis activity against TGF-beta1 stimulated human LX2 cells assessed as reduction in Smad3 phosphorylation incubated for 48 hrs by Western blotting analysis; type: functional, cell-based; conditions: dose 5-20 µM
CCC-HPF-1 [24] = assay: Anti-pulmonary fibrosis activity against TGF-beta1 stimulated human CCC-HPF-1 cells assessed as reduction in FN mRNA expression level at 5 to 20 uM incubated for 48 hrs by quantitative real-time PCR analysis; type: functional, cell-based; conditions: dose 5-20 µM
LX-2 [25] = assay: Anti-hepatic fibrosis activity against TGF-beta1 stimulated human LX2 cells assessed as reduction in FN mRNA expression level at 5 to 20 uM incubated for 48 hrs by quantitative real-time PCR analysis; type: functional, cell-based; conditions: dose 5-20 µM
Autotaxin [26] = biological target: T1, Autotaxin; assay: Potency index, ratio of GLPG-1690 IC50 to test compound IC50 for inhibition of human ATX in using LPC as substrate by fluorescence based microplate reader assay
CCC-HPF-1 [27] = assay: Anti-pulmonary fibrosis activity against TGF-beta1 stimulated human CCC-HPF-1 cells assessed as reduction in alpha-SMA mRNA expression level at 5 to 20 uM incubated for 48 hrs by quantitative real-time PCR analysis; type: functional, cell-based; conditions: dose 5-20 µM
LX-2 [28] = assay: Anti-migratory activity against TGF-beta1 stimulated human LX2 cells at 10 uM incubated for 24 hrs by light microscopic analysis; type: functional, cell-based

- IC50 (Autotaxin [1]): 15.4 nM
Structure (SMILES): C[C@H](CCC(=O)N1CCc2nc(NC3Cc4ccc(Br)cc4C3)ncc2C1)[C@H]1CC[C@H]2[C@@H]3[C@@H](O)C[C@@H]4C[C@H](O)CC[C@]4(C)[C@H]3CC[C@]12C (some centres undefined)

- IC50 (Autotaxin [1]): 342 nM
Structure (SMILES): C[C@H](CCC(=O)N1CCc2nc(NCc3ccccc3)ncc2C1)[C@H]1CC[C@H]2[C@@H]3[C@@H](O)C[C@@H]4C[C@H](O)CC[C@]4(C)[C@H]3CC[C@]12C

- IC50 (Autotaxin [1]): 92.5 nM
Structure (SMILES): C[C@H](CCC(=O)N1CCc2nc(NCCc3ccccc3Br)ncc2C1)[C@H]1CC[C@H]2[C@@H]3[C@@H](O)C[C@@H]4C[C@H](O)CC[C@]4(C)[C@H]3CC[C@]12C

Structure (SMILES): C[C@H](CCC(=O)O)[C@H]1CC[C@H]2[C@@H]3[C@@H](O)C[C@@H]4C[C@H](O)CC[C@]4(C)[C@H]3CC[C@]12C [URSODIOL]
- IC50 (Autotaxin [1]): 9260 nM

- IC50 (Autotaxin [1]): 43.9 nM
Structure (SMILES): C[C@H](CCC(=O)N1CCc2nc(N3CCC(c4ccccc4)CC3)ncc2C1)[C@H]1CC[C@H]2[C@@H]3[C@@H](O)C[C@@H]4C[C@H](O)CC[C@]4(C)[C@H]3CC[C@]12C

- IC50 (Autotaxin [1]): 7.51 nM
- Ratio IC50 (Autotaxin [26]): 9
Structure (SMILES): C[C@H](CCC(=O)N1CCc2nc(NCCc3ccc(Cl)cc3)ncc2C1)[C@H]1CC[C@H]2[C@@H]3[C@@H](O)C[C@@H]4C[C@H](O)CC[C@]4(C)[C@H]3CC[C@]12C
- Activity (LX-2 [2]): Active
- Activity (LX-2 [3]): inactive
- Activity (LX-2 [4]): Active
- Activity (CCC-HPF-1 [5]): inactive
- Activity (CCC-HPF-1 [6]): Active
- Activity (LX-2 [7]): Non-Toxic
- Activity (CCC-HPF-1 [8]): Active
- Activity (CCC-HPF-1 [9]): Dose-Dependent Effect
- Activity (CCC-HPF-1 [10]): Active
- Activity (LX-2 [11]): Active
- Activity (LX-2 [12]): inactive
- Activity (LX-2 [13]): Active
- Activity (CCC-HPF-1 [14]): Non-Toxic
- Activity (CCC-HPF-1 [15]): Dose-Dependent Effect
- Activity (CCC-HPF-1 [16]): Active
- Activity (CCC-HPF-1 [17]): Active
- Activity (LX-2 [18]): Dose-Dependent Effect
- Activity (LX-2 [19]): Active
- Activity (CCC-HPF-1 [20]): inactive
- Activity (CCC-HPF-1 [21]): Active
- Activity (LX-2 [22]): Active
- Activity (LX-2 [23]): Dose-Dependent Effect
- Activity (CCC-HPF-1 [24]): Active
- Activity (LX-2 [25]): Active
- Activity (CCC-HPF-1 [27]): Active
- Activity (LX-2 [28]): Active

- IC50 (Autotaxin [1]): 165 nM
Structure (SMILES): C[C@H](CCC(=O)N1CCc2nc(NCCCc3ccccc3)ncc2C1)[C@H]1CC[C@H]2[C@@H]3[C@@H](O)C[C@@H]4C[C@H](O)CC[C@]4(C)[C@H]3CC[C@]12C

- IC50 (Autotaxin [1]): 15.6 nM
Structure (SMILES): C[C@H](CCC(=O)N1CCc2nc(NCCc3ccccc3F)ncc2C1)[C@H]1CC[C@H]2[C@@H]3[C@@H](O)C[C@@H]4C[C@H](O)CC[C@]4(C)[C@H]3CC[C@]12C

- IC50 (Autotaxin [1]): 57.8 nM
Structure (SMILES): C[C@H](CCC(=O)N1CCc2nc(NCCc3ccccc3)ncc2C1)[C@H]1CC[C@H]2[C@@H]3[C@@H](O)C[C@@H]4C[C@H](O)CC[C@]4(C)[C@H]3CC[C@]12C

- IC50 (Autotaxin [1]): 335 nM
Structure (SMILES): C[C@H](CCC(=O)N1CCc2nc(NCCc3c[nH]c4ccccc34)ncc2C1)[C@H]1CC[C@H]2[C@@H]3[C@@H](O)C[C@@H]4C[C@H](O)CC[C@]4(C)[C@H]3CC[C@]12C

- IC50 (Autotaxin [1]): 41.4 nM
Structure (SMILES): C[C@H](CCC(=O)N1CCc2nc(NCCc3cccc(F)c3)ncc2C1)[C@H]1CC[C@H]2[C@@H]3[C@@H](O)C[C@@H]4C[C@H](O)CC[C@]4(C)[C@H]3CC[C@]12C

- IC50 (Autotaxin [1]): 136 nM
Structure (SMILES): COc1ccc(CCNc2ncc3c(n2)CCN(C(=O)CC[C@@H](C)[C@H]2CC[C@H]4[C@@H]5[C@@H](O)C[C@@H]6C[C@H](O)CC[C@]6(C)[C@H]5CC[C@]24C)C3)cc1
